Measurements as given in patent US9891237B2, “Fluorescent sensor for metal cation detection based on 2-(2′-hydroxyphenyl)benzazole containing a Schiff base moiety” (priority 2013, dated 2018).

Experiments:
[1] = Absorption and fluorescence of free sensor 1 in aqueous medium; type: physicochemical
Protocol: Sensor 1 was synthesized by refluxing the corresponding dialdehyde (as described in W. Chen, Y. Xing, and Y. Pang, Org. Lett., 2011, 13, 1262) with hydrazinopyridine in EtOH for 2 hours, and was collected as yellow solid in >90% yield.
(§1) (Cr: ΦF=0.63; Al: ΦF=0.31).

[2] = UV-vis and fluorescence response of sensor 1 to Al^3+ in H2O:EtOH=8:2
Description: as §1

[3] = Fluorescence response of sensor 1 to Fe^3+ in H2O:EtOH=8:2
Description: as §1

[4] = UV-vis and fluorescence response of sensor 1 to mono- and divalent metal ions
Description: as §1

[5] = system: human mesenchymal stem cells (hMSCs); assay: Confocal fluorescence imaging of intracellular Cr^3+ and Al^3+ with sensor 1; type: cell-based
Description: FIG. 15A provides a confocal fluorescence images of Human mesenchymal stem cells (hMSCs) excited with a Diode laser (405 nm) on an Olympus FV-1000 laser scanning microscope. The images were collected at bright field. […]
FIG. 15B provides a confocal fluorescence images of Human mesenchymal stem cells (hMSCs) excited with a Diode laser (405 nm) on an Olympus FV-1000 laser scanning microscope. The images were collected at bright field. […] 15E was collected from 535-565 nm.
FIG. 15C provides a confocal fluorescence images of Human mesenchymal stem cells (hMSCs) excited with a Diode laser (405 nm) on an Olympus FV-1000 laser scanning microscope. The images were collected at bright field. […] 15F was collected from 505-525 nm
FIG. 15D provides a confocal fluorescence images of Human mesenchymal stem cells (hMSCs) excited with a Diode laser (405 nm) on an Olympus FV-1000 laser scanning microscope. The images were collected fluorescent channels. […]
FIG. 15E provides a confocal fluorescence images of Human mesenchymal stem cells (hMSCs) excited with a Diode laser (405 nm) on an Olympus FV-1000 laser scanning microscope. The images were collected fluorescent channels. […] 15E was collected from 535-565 nm.
FIG. 15F provides a confocal fluorescence images of Human mesenchymal stem cells (hMSCs) excited with a Diode laser (405 nm) on an Olympus FV-1000 laser scanning microscope. The images were collected fluorescent channels. […] 15F was collected from 505-525 nm
The potential application of 1 for both Cr^3+ and Al^3+ in biological samples was examined by using confocal fluorescence microscopy. […] Bright-field measurements confirmed that the cells, after being treated with Cr^3+/Al^3+ and 1, were viable throughout the imaging experiments. […] Response to Cr^3+ and Al^3+ ions with distinctly different colors (yellow-green and cyan, respectively) from the cell samples raised the prospect that the Cr^3+ and Al^3+ ions could be simultaneously determined and distinguished

[6] = Absorption, emission and Stokes' shift of ligands and their zinc complexes (Table 1); type: physicochemical
[7] = Fluorescence of free ligand 4; type: physicochemical
Protocol: (§2) FIG. 3 provides a fluorescence spectra of 4 (10 μM) in EtOH:HEPES=1:1 (pH=7.2) upon addition of 5 equiv. of different ions.
(§3) The ligand 4 gave a weak fluorescence peak at 580 nm (φfl=0.05). […] NIR emission was relatively stronger in pure methanol. The green fluorescence turn-on could be easily observed, making it also useful for naked eye detection (FIG. 3). […] In other words, the probe molecule 4 is silent to Cd^2+ cation, as its binding could not remove the phenolic proton (a necessary step to simultaneously shift the emission and turn on the ESIPT for NIR emission).
(§4) In order to clarify the interaction of 4 with different metal ions, the UV-vis absorption and fluorescence spectra of 4 (10 μM in EtOH:H2O=1:1 solutions) were studied by addition of 5 equiv. of different cations.

[8] = UV-vis absorption and fluorescence response/titration of 4 with Zn^2+ in EtOH/HEPES; type: binding
Protocol: (§5) FIG. 2 provides an absorbance spectra of 4 (10 μM) in EtOH/HEPES (10 mM) (1:1) (pH=7.2), upon addition of 5 equiv. of different cations.
as §2
(§6) The binding property of 4 to Zn^2+ cation was examined in EtOH/HEPES (FIG. 2). As the Zn^2+ cation was added, a new absorption band was generated at about 450 nm.
as §3, §4
A It is important to note that, while the ligand 4 can bind Zn^2+ cation well, the same is not true for the Cd^2+ cation, although the atomic configuration ([Ar]3d^10 for Zn^2+ and [Kr]4d^10 for Cd^2+). On the basis of quick disappearance of the —OH signal at ˜10 ppm (^1H NMR in FIG. 5), the initial step might involve a weak interaction of metal cation with the imine —CH═N—, forming intermediate 5. […] The Zn^2+ cation in 6a could further interact with the adjacent hydroxyl group to form the fused 6-membered ring “B”, which requires twisting of the “HBO” fragment from the Schiff base fragment (ring A).

[9] = UV-vis absorption and fluorescence response of 4 to Cd^2+; type: binding
Protocol: as §5, §2, §6, §3, §4
When Cd^2+ was used, the interaction pattern appeared to be quite different. […] Therefore, the equilibrium between 6b and 8 might occur without forming the fused rings A-B in 4-Cd. […]

[10] = UV-vis absorption and fluorescence response of 4 to Al^3+
Protocol: as §5, §2, §6, §3, §4

[11] = UV-vis absorption and fluorescence response of 4 to 5 equiv. of different cations
Protocol: as §5, §2, §3, §4

[12] = system: human cancer cells (HepG2) and human umbilical vein endothelial cells (HUVECs); assay: Confocal fluorescence imaging of intracellular Zn^2+ with sensor 4; type: cell-based
Protocol: FIG. 8A provides confocal fluorescence images of Human mesenchymal stem cells (hMSCs) excited with a 488 laser. The image were collected at bright field on an Olympus FV1000-Filter Confocal Microscopy. a→b: the cells were incubated with dye 4 for 60 mins at 37° C.
FIG. 8B provides confocal fluorescence images of Human mesenchymal stem cells (hMSCs) excited with a 488 laser. The images were collected at green channel (535-565 nm) on an Olympus FV1000-Filter Confocal Microscopy. a→b: the cells were incubated with dye 4 for 60 mins at 37° C.
FIG. 8C provides confocal fluorescence images of Human mesenchymal stem cells (hMSCs) excited with a 488 laser. The images were collected at bright field on an Olympus FV1000-Filter Confocal Microscopy. c→d: the cells were first treated with Zn(OAc)2 (30 μM) for 30 mins and further exposed to dye 4 (10 μM) for another 60 mins at 37° C.
FIG. 8D provides confocal fluorescence images of Human mesenchymal stem cells (hMSCs) excited with a 488 laser. The images were collected green channel (535-565 nm) on an Olympus FV1000-Filter Confocal Microscopy. the cells were first treated with Zn(OAc)2 (30 μM) for 30 mins and further exposed to dye 4 (10 μM) for another 60 mins at 37° C.
To illustrate the potential biological application, sensor 4 was applied to visualize intracellular Zn^2+ in both human cancer cells (HepG2) and human umbilical vein endothelial cells (HUVECs) (See FIGS. 8A-D). FIGS. 8A-D show confocal fluorescence images of Human mesenchymal stem cells (hMSCs) excited with a 488 laser. The images were collected at bright field (a and c) and green channel (535-565 nm; b and d) on an Olympus FV1000-Filter Confocal Microscopy. a→b: the cells were incubated with dye 4 for 60 mins at 37° C.; c→d: the cells were first treated with Zn(OAc)2 (30 μM) for 30 mins and further exposed to dye 4 (10 μM) for another 60 mins at 37° C. For this purpose, cells were first incubated with 30 μM of Zn^2+ for 30 mins and then further treated with 10 μM dye 4 for another […]. […]

[13] = 10 μM in EtOH:H2O=1:1, 5 equiv.

## Oc1c(C=NNc2ccccn2)cc(C=NNc2ccccn2)cc1-c1nc2ccccc2o1 [Sensor 1]
[1]
  absorption major peak (π-π*): 315 nm
  absorption minor peak (n-π*): 432 nm
[1]; free sensor, H2O:EtOH=8:2
  Stokes' shift: 180 nm
  ΦF: 0.1
[2]
  Stokes' shift of the Al^3+ complex emission: 170 nm
  stability of fluorescence with Al^3+ over time: quite stable
[2]; H2O:EtOH=8:2
  fluorescence response upon addition of Al^3+: immediate fluorescence turn-on
  ΦF with Al^3+: 0.31
[2]; H2O:EtOH=8:2, blue-green
  emission λem with Al^3+: ~527 nm
[3]
  fluorescence response upon addition of Fe^3+: immediate fluorescence turn-on
  time to quenching of fluorescence with Fe^3+: ≤ 5 min
[4]; 10 equiv.
  fluorescence effect of Mn^2+, Ni^2+, Pb^2+, Ba^2+, Ag^+, Hg^2+: slight quenching
  response to Ca^2+, Mg^2+, Na^+ and K^+: negligible response
[4]; 10 equiv., except Cu^2+
  change in UV-vis spectra on addition of M^+ and M^2+ cations: almost no change
[4]; 10 equivalents
  fluorescence effect of Cu^2+: quenched the fluorescence
[4]; 10 equivalents, H2O:EtOH=8:2, except Cu^2+
  fluorescence change on addition of divalent metal ions: negligible fluorescence change
[5]
  cell permeability: permeable to cells
[5]; 10 μM dye
  intracellular fluorescence, control without added metal ions: negligible intracellular fluorescence
[5]; after treatment with Cr^3+/Al^3+ and 1
  cell viability during imaging (bright-field): viable
[5]; then 10 μM sensor 30 minutes
  intracellular fluorescence after Al^3+: significant increase in the fluorescence
  intracellular fluorescence after Cr^3+: significant increase in the fluorescence
other
  Stokes' shift of the Cr^3+ complex emission: 195 nm
  new π-π* absorption band upon addition of Cr^3+: about 358 nm
10 equiv. other metal ions, then 10 equiv. Cr^3+
  selectivity as chemosensor for Cr^3+: highly selective
H2O:EtOH=8:2
  fluorescence response upon addition of Cr^3+: immediate fluorescence turn-on
  ΦF with Cr^3+: 0.63
H2O:EtOH=8:2, yellow green
  emission λem with Cr^3+: ~556 nm

## Cc1ccc2nc(-c3cc(O)c(C=NNc4ccccn4)cc3O)oc2c1 [Sensor 4]
[6]
  Absorption λmax (nm): 413 nm
  Stokes' shift: 6971 cm⁻¹
[6]; first or only emission peak
  Emission λem (nm): 580 nm
[6]; value in brackets
  Stokes' shift: 167 nm
[7]
  fluorescence peak of the ligand: 580 nm
  φfl: 0.05
[8]; 1:1 EtOH/H2O
  φfl upon addition of Zn^2+: 0.26
[8]; EtOH/HEPES
  new absorption band upon Zn^2+ addition: about 450 nm
[8]; from the fluorescence titration data
  association constant Ka: 228000 M⁻¹
[8]; upon Zn^2+ binding
  Stokes' shift of NIR emission: ~260 nm
[8]; upon addition of Zn^2+
  NIR emission peak upon addition of Zn^2+ (keto tautomer): ~720 nm
  emission peak upon addition of Zn^2+ (enol tautomer): 545 nm
[8]; versus other cations
  selectivity toward Zn^2+ binding: excellent selectivity
[9]; [13]
  fluorescence response to Cd^2+ cation: no observable fluorescence response
[9]; absorption, EtOH/HEPES
  binding to Cd^2+ cation: weak binding
[10]
  enhanced emission induced by Al^3+: ~610 nm
[10]; EtOH/HEPES
  bathochromic shift of absorption on addition of other cations such as Al^3+: did not cause a notable bathochromic shift
[11]
  dual emission on addition of other cations (K^+, Na^+, Ag^+, Cd^2+, Ca^2+, Mg^2+, Pb^2+, Ni^2+, Hg^2+, Co^2+, Cu^2+, Cr^3+, Fe^3+, Al^3+): did not induce the dual emissions at 545 and 720 nm
[11]; [13]
  fluorescence effect of Ag^+, Co^2+, Ni^2+ and Cu^2+: quenched the fluorescence
  fluorescence effect of Cr^3+, Fe^3+ and Al^3+: slightly increased the fluorescence
  red shift of fluorescence signal on addition of Cr^3+, Fe^3+ and Al^3+: 25-37 nm
  response to K^+, Na^+, Ca^2+ ions: no response
[12]
  cell permeability: permeable to cells
[12]; 30 μM Zn^2+ 30 mins, then 10 μM dye
  fluorescence in cells treated with Zn^2+ and the dye: strong fluorescence
[12]; dye only, green channel 535-565 nm, 488 laser
  fluorescence in cells treated with only the dye: very weak fluorescence
